Reference: patent US9388137B2, “Quaternized amines as sodium channel blockers” (Purdue Pharma L.P., priority 2011, dated 2016)

What was measured:
[1] = target: human Nav1.7 (Homo sapiens (Human), UniProt Q15858); test: FLIPR sodium dye assay for sodium channel blocking activity; format: cell-based; details: recombinant Nav1.7/HEK293 cells
[2] = target: hNav1.7 (Homo sapiens (Human), UniProt Q15858); test: Electrophysiology (EP) assay, whole-cell patch clamp; format: cell-based; details: hNav1.7 HEK-293 cells
hNav1.7, sequence (Q15858 other isoform, or with tags, fused parts or gaps): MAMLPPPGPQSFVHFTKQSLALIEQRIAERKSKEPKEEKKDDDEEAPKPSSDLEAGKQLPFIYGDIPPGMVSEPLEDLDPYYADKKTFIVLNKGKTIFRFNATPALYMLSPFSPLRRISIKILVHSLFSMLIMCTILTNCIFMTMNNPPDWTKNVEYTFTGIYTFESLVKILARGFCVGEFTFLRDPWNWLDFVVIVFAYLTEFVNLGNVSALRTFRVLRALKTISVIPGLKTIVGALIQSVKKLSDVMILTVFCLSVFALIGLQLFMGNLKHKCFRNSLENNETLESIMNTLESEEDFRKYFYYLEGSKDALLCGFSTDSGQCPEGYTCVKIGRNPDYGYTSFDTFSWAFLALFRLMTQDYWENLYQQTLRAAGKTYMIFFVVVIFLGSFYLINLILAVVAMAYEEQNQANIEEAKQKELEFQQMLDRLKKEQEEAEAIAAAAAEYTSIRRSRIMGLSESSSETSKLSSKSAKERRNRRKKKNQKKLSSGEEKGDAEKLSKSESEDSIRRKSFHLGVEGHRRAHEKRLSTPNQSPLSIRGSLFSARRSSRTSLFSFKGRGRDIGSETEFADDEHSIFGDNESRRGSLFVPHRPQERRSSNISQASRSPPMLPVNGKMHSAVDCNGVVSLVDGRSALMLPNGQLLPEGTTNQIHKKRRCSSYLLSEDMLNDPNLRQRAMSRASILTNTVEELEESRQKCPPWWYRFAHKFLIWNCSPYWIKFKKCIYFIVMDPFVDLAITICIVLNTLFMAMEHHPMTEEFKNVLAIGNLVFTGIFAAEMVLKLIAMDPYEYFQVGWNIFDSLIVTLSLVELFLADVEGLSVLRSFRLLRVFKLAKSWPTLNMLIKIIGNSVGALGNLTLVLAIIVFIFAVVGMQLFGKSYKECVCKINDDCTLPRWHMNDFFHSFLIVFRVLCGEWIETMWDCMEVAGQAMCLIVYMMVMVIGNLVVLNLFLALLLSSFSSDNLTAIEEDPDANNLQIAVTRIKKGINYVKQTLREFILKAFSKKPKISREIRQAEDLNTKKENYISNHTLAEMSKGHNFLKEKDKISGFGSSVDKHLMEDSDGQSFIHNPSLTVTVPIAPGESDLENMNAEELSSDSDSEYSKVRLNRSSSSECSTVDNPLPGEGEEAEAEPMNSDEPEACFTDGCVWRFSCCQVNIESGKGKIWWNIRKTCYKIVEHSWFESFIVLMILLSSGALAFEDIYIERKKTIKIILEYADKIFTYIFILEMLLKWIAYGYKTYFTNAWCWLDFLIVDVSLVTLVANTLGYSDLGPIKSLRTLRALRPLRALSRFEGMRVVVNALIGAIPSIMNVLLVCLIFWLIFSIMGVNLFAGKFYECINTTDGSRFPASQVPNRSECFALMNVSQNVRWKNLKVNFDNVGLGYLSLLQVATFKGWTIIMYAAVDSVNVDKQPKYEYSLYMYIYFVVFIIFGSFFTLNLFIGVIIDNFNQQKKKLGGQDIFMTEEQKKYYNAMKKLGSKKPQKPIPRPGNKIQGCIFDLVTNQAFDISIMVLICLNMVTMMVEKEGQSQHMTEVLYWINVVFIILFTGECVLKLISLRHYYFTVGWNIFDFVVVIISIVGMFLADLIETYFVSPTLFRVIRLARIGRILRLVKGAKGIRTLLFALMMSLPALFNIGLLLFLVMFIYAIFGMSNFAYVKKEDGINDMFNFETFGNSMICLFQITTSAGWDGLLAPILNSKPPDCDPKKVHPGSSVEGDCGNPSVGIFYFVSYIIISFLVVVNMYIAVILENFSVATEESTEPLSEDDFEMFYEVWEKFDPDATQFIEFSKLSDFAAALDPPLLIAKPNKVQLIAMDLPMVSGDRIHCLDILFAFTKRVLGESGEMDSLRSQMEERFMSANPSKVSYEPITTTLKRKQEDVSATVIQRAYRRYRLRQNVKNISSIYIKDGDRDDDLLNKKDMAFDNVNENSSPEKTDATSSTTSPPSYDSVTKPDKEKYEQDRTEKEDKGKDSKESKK

human Nav1.7, sequence (Q15858 other isoform, or with tags, fused parts or gaps): as above

SMILES	IC50 [1] [µM]	Ki ([2]; affinity for the inactivated state of the channel, read-out: Nav1.7 Activity EP assay Ki) [µM]	Kd ([2]; dissociation constant for binding to the resting state of the channel, read-out: Nav1.7 Activity EP assay Kr) [µM]
Cc1cc(C(=O)NCC[N+]2(C)CCOCC2)cc(-c2ccc(Oc3ccc(F)cc3)cc2)n1 [Example 2, 4-[2-({2-[4-(4-fluoro-phenoxy)-phenyl]-6-methyl-pyridine-4-carbonyl}-amino)-ethyl]-4-methyl-morpholin-4-ium]	1.88 ± 0.287	–	–
Cc1cc(C(=O)N2CCC([N+]3(C)CCCC3)CC2)cc(-c2ccc(Oc3ccc(F)cc3)cc2)n1 [Example 3, 1-(1-{2-[4-(4-fluoro-phenoxy)-phenyl]-6-methyl-pyridine-4-carbonyl}-piperidin-4-yl)-1-methyl-pyrrolidinium]	> 20	–	–
Cc1cc(C(=O)NCC[N+](C)(C)C)cc(-c2ccc(Oc3ccc(F)cc3)cc2)n1 [Example 6, [2-({2-[4-(4-fluoro-phenoxy)-phenyl]-6-methyl-pyridine-4-carbonyl}-amino)-ethyl]-trimethyl-ammonium]	6.52 ± 0.466	–	–

The remaining lines, values ahead:

IC50 [1] [µM]	Ki ([2]; affinity for the inactivated state of the channel, read-out: Nav1.7 Activity EP assay Ki) [µM]	Kd ([2]; dissociation constant for binding to the resting state of the channel, read-out: Nav1.7 Activity EP assay Kr) [µM]	SMILES
0.872 ± 0.255	6.03 ± 0.91	125 ± 23.4	Cc1cc(C(=O)NCC[N+]2(C)CCCCC2)cc(-c2ccc(Oc3ccc(F)cc3)cc2)n1 [Example 1, 1-[2-({2-[4-(4-fluoro-phenoxy)-phenyl]-6-methyl-pyridine-4-carbonyl}-amino)-ethyl]-1-methyl-piperidinium]
3.99 ± 0.289	–	–	Cc1cc(C(=O)NCc2ccc([N+](C)(C)C)cc2)cc(-c2ccc(Oc3ccc(F)cc3)cc2)n1 [Example 4, {4-[({2-[4-(4-fluoro-phenoxy)-phenyl]-6-methyl-pyridine-4-carbonyl}-amino)-methyl]-phenyl}-trimethyl-ammonium]
> 20	–	–	Cc1cc(C(=O)N(C)C2CC[N+](C)(C)CC2)cc(-c2ccc(Oc3ccc(F)cc3)cc2)n1 [Example 8, 4-({2-[4-(4-Fluoro-phenoxy)-phenyl]-6-methyl-pyridine-4-carbonyl}-methyl-amino)-1,1-dimethyl-piperidinium]
> 20	–	–	Cc1cc(C(=O)N2CC[N+](C)(C)CC2)cc(-c2ccc(Oc3ccc(F)cc3)cc2)n1 [Example 7, 4-{2-[4-(4-Fluoro-phenoxy)-phenyl]-6-methyl-pyridine-4-carbonyl}-1,1-dimethyl-piperazin-1-ium]
2.9 ± 0.375	–	–	Cc1cc(C(=O)NCC[N+]2(C)CCCC2)cc(-c2ccc(Oc3ccc(F)cc3)cc2)n1 [Example 5, 1-[2-({2-[4-(4-fluoro-phenoxy)-phenyl]-6-methyl-pyridine-4-carbonyl}-amino)-ethyl]-1-methyl-pyrrolidinium]
